Where a name gives a salt, the structure may show the parent alone. Read-outs that look alike come from different tables or passages of the source.

In the assay the target is S. aureus GyrB ATPase (Staphylococcus aureus, UniProt P0A0K8). The experiment in a line: S. aureus (SAU) GyrB ATPase inhibition, malachite green phosphate detection (E. coli GyrA + S. aureus GyrB). The assay is classed as biochemical. Conditions: read-out: S. aureus (SAU) GyrB ATPase % Inhibition. A digest of the protocol:
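E. coli GyrA and S. aureus GyrB (1.25 nM each) with 500 μM ATP and 5 μg/ml sheared salmon sperm DNA in 50 mM Hepes pH 7.5, 8.0 mM MgCl2. Released phosphate detected with ammonium molybdate/malachite green at 650 nm; 2% DMSO as 0% and 2 μM novobiocin as 100% inhibition; IC50 from 10 concentrations.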

Setting [1] is: compound concentration of 1.0 μM unless otherwise noted, average value where assay was carried out more than once.

Chain of S. aureus GyrB ATPase (P0A0K8 whole entry): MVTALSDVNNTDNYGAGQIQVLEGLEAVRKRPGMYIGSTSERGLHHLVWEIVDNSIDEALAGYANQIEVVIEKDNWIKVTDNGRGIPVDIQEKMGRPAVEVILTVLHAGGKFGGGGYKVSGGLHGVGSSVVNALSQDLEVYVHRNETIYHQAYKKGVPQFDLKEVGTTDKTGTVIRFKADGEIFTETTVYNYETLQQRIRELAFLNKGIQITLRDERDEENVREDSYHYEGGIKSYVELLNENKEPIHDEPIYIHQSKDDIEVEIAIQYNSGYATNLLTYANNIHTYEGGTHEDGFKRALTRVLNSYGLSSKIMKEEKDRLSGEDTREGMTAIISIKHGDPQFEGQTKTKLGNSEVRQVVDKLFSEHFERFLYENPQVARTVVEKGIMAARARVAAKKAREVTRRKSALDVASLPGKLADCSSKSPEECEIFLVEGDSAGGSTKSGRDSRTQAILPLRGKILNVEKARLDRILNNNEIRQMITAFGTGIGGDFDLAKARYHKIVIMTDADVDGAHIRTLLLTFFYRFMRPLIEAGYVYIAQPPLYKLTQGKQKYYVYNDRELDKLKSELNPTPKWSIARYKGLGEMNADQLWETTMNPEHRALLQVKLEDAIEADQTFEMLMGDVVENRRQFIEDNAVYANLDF
Chain of S. aureus GyrB ATPase (P0AES4 whole entry, further chain): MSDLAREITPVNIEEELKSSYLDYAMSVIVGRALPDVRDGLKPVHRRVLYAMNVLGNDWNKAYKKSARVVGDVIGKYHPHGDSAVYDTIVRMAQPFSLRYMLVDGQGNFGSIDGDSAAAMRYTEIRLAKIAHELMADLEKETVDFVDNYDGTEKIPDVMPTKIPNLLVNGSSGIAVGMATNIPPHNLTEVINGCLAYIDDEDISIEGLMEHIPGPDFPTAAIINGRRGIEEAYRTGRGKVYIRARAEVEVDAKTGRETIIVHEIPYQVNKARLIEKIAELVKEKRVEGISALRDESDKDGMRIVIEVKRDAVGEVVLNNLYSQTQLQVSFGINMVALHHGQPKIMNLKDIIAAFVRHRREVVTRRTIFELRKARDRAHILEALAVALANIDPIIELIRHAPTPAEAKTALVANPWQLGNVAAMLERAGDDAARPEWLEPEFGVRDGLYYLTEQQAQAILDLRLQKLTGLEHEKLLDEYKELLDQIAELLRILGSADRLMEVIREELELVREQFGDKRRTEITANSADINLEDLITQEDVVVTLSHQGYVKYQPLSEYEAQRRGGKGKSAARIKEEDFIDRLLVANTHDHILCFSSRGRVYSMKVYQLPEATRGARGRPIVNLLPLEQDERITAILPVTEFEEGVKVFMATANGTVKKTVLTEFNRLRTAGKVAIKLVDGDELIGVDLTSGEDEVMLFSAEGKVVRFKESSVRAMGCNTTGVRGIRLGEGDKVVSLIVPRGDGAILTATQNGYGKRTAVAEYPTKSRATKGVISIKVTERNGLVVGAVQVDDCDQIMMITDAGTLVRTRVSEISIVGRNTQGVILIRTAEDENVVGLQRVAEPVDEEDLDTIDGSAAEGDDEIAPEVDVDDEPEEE

The term inhibition denotes the relative decrease from the control value, in per cent. On to `CCNC(=O)Nc1cc(-c2nc(C(F)(F)F)cs2)c(-c2cc(-c3nnc(C)o3)cnc2OC(C)CN(C)C)cn1` (stereo not shown) [Example 114, 1-(2′-(1-(Dimethylamino)propan-2-yloxy)-5′-(5-methyl-1,3,4-oxadiazol-2-yl)-4-(4-(trifluoromethyl)thiazol-2-yl)-3,3′-bipyridin-6-yl)-3-ethylurea], for which, under setting [1], the inhibition at 1 µM came to 97%.

With `CCNC(=O)Nc1cc(-c2nc(C(F)(F)F)cs2)c(-c2cc(-c3nnc(C)o3)cnc2OCCN(CC)CC)cn1` [Example 115, 1-(2′-(2-(diethylamino)ethoxy)-5′-(5-methyl-1,3,4-oxadiazol-2-yl)-4-(4-(trifluoromethyl)thiazol-2-yl)-3,3′-bipyridin-6-yl)-3-ethylurea], the inhibition at 1 µM under setting [1] stood at 96%.

In the case of `CCNC(=O)Nc1cc(-c2nc(C(F)(F)F)cs2)c(-c2cc(-c3nnc(C)o3)cnc2OCCN(C(C)C)C(C)C)cn1` [Example 116, 1-(2′-(2-(diisopropylamino)ethoxy)-5′-(5-methyl-1,3,4-oxadiazol-2-yl)-4-(4(trifluoromethyl)thiazol-2-yl)-3,3′-bipyridin-6-yl)-3-ethylurea], the inhibition at 1 µM under setting [1] was 90%.

On to `CCNC(=O)Nc1cc(-c2nc(C(F)(F)F)cs2)c(-c2cc(-c3nnc(C)o3)cnc2OC2CC(C)(C)N(C)C(C)(C)C2)cn1` [Example 117, 1-Ethyl-3-(5′-(5-methyl-1,3,4-oxadiazol-2-yl)-2′-(1,2,2,6,6-pentamethylpiperidin-4-yloxy)-4-(4-(trifluoromethyl)thiazol-2-yl)-3,3′-bipyridin-6-yl)urea], for which the inhibition at 1 µM under setting [1] came to 105%.

In the case of `CCNC(=O)Nc1cc(-c2nc(C(F)(F)F)cs2)c(-c2cc(-c3n[nH]c(=O)o3)cnc2OC(C)CN(C)C)cn1` (stereo not shown) [Example 118], under setting [1], the inhibition at 1 µM amounted to 118%.

As to `CCNC(=O)Nc1cc(-c2nc(C(F)(F)F)cs2)c(-c2cc(-c3n[nH]c(=O)o3)cnc2OCCN(CC)CC)cn1` [Example 119], the inhibition at 1 µM under setting [1] is 96%.

With `CCNC(=O)Nc1cc(-c2nc(C(F)(F)F)cs2)c(-c2cc(-c3n[nH]c(=O)o3)cnc2OCCN(C(C)C)C(C)C)cn1` [Example 120], the inhibition at 1 µM under setting [1] was determined as 118%.

Regarding `CCNC(=O)Nc1cc(-c2nc(C(F)(F)F)cs2)c(-c2cc(-c3nnc([C@@H](N)C(C)C)o3)cnc2OCCN(CC)CC)cn1` [Example 122, 1-(5′-(5-(1-amino-2-methylpropyl)-1,3,4-oxadiazol-2-yl)-2′-(2-(diethylamino)ethoxy)-4-(4-(trifluoromethyl)thiazol-2-yl)-3,3′-bipyridin-6-yl)-3-ethylurea hydrochloride], the inhibition at 1 µM under setting [1] worked out at 102%.

On to `CCCNC(=O)Nc1cc(-c2nc(C(F)(F)F)cs2)c(-c2cc(-c3nnc(C)o3)cnc2OCCN(C(C)C)C(C)C)cn1` [Example 123, 1-(2′-(2-(Diisopropylamino)ethoxy)-5′-(5-methyl-1,3,4-oxadiazol-2-yl)-4-(4-(trifluoromethyl)thiazol-2-yl)-3,3′-bipyridin-6-yl)-3-propylurea], for which the inhibition at 1 µM under setting [1] came out at 78%.

Turning to `CCNC(=O)Nc1cc(-c2nc(C(F)(F)F)cs2)c(-c2cnc(OC)nc2)cn1` [Example 125], the inhibition at 1 µM under setting [1] was determined as 103%.

Regarding `CCNC(=O)Nc1cc(-c2nc(C(F)(F)F)cs2)c(-c2cnc(C#N)nc2)cn1` [Example 126], under setting [1], the inhibition at 1 µM worked out at 102%.

Consider `CCNC(=O)Nc1cc(-c2nc(C(F)(F)F)cs2)c(-c2ccc(F)nc2)cn1` [Example 127], for which, under setting [1], the inhibition at 1 µM came out at 100%.

For `CCNC(=O)Nc1cc(-c2nc(-c3ccccc3)cs2)c(-c2cncc(S(N)(=O)=O)c2)cn1` [Example 128], the inhibition at 1 µM under setting [1] was 92%.

For the compound `CCNC(=O)Nc1cc(-c2nc(-c3ccccn3)cs2)c(-c2cncc(S(C)(=O)=O)c2)cn1` [Example 129], the inhibition at 1 µM under setting [1] turned out to be 102%.

For the compound `CCNC(=O)Nc1cc(-c2nc(-c3ccccc3)cs2)c(-c2ccc[n+]([O-])c2)cn1` [Example 130], the inhibition at 1 µM under setting [1] was determined as 103%.

As to `CCNC(=O)Nc1cc(-c2nc(C(F)(F)F)cs2)c(-c2cncc(-c3c[nH]c(=O)[nH]c3=O)c2)cn1` [Example 131, 1-(5′-(2,4-Dioxo-1,2,3,4-tetrahydropyrimidin-5-yl)-4-(4-(trifluoromethyl)thiazol-2-yl)-3,3′-bipyridin-6-yl)-3-ethylurea], the inhibition at 1 µM under setting [1] is 93%.

As for `CCNC(=O)Nc1cc(-c2nc(C(F)(F)F)cs2)c(-c2cncc(-c3c[nH]nc3C)c2)cn1` [Example 132], the inhibition at 1 µM under setting [1] is 92%.

Take `CCNC(=O)Nc1cc(-c2nc(C(F)(F)F)cs2)c(-c2cncc(-c3c(C)noc3C)c2)cn1` [Example 133]: under setting [1], the inhibition at 1 µM was 104%.

As to `CCNC(=O)Nc1cc(-c2nc(C(F)(F)F)cs2)c(-c2cncc(-c3ccn[nH]3)c2)cn1` [Example 134], under setting [1], the inhibition at 1 µM amounted to 120%.

As to `CCNC(=O)Nc1cc(-c2nc(C(F)(F)F)cs2)c(-c2cncc(-c3n[nH]c(=O)[nH]3)c2)cn1` [Example 135, 1-Ethyl-3-(5′-(5-oxo-4,5-dihydro-1H-1,2,4-triazol-3-yl)-4-(4-(trifluoromethyl)thiazol-2-yl)-3,3′-bipyridin-6-yl)urea], the inhibition at 1 µM under setting [1] stood at 101%.

As to `CCNC(=O)Nc1cc(-c2nc(C(F)(F)F)cs2)c(-c2cncc(-c3nnc(N)o3)c2)cn1` [Example 136, 1-(5′-(5-Amino-1,3,4-oxadiazol-2-yl)-4-(4-(trifluoromethyl)thiazol-2-yl)-3,3′-bipyridin-6-yl)-3-ethylurea], the inhibition at 1 µM under setting [1] worked out at 102%.

In the case of `CCNC(=O)Nc1cc(-c2nc(C(F)(F)F)cs2)c(-c2nc(-c3ncnn3C)c(-c3nnc(C)o3)s2)cn1` [Example 137, 1-Ethyl-3-(5-(5-(5-methyl-1,3,4-oxadiazol-2-yl)-4-(1-methyl-1H-1,2,4-triazol-5-yl)thiazol-2-yl)-4-(4-(trifluoromethyl)thiazol-2-yl)pyridin-2-yl)urea], the inhibition at 1 µM under setting [1] was 101%.

Consider `CCNC(=O)Nc1cc(-c2nc(C(F)(F)F)c(C)s2)c(-c2cncc(-c3nnc(C)o3)c2)cn1` [Example 138, 1-Ethyl-3-(5′-(5-methyl-1,3,4-oxadiazol-2-yl)-4-(5-methyl-4-(trifluoromethyl)thiazol-2-yl)-3,3′-bipyridin-6-yl)urea], for which the inhibition at 1 µM under setting [1] amounted to 104%.

Take `CCNC(=O)Nc1cc(-c2nc(C(F)(F)F)cs2)c(-c2cc(-c3n[nH]c(=O)o3)c[n+]([O-])c2)cn1` [Example 139]: the inhibition at 1 µM came to 103%.

On to `CCNC(=O)Nc1cc(-c2nc(C(F)(F)F)cs2)c(-c2cncc(-c3nn(C)c(=O)o3)c2)cn1` [Example 140], for which the inhibition at 1 µM under setting [1] is 97%.

Consider `CCNC(=O)Nc1cc(-c2nc(C(F)(F)F)cs2)c(-c2cc(-c3nnc(C)o3)cnc2OC2CCOCC2)cn1` [Example 141], for which, under setting [1], the inhibition at 1 µM came out at 97%.

Take `CCNC(=O)Nc1cc(-c2nc(C(F)(F)F)c(C)s2)c(-c2cc(-c3nnc(C)o3)cnc2OC2CCOCC2)cn1` [Example 142]: the inhibition at 1 µM under setting [1] worked out at 96%.

Take `CCNC(=O)Nc1cc(C2=NC(OC)(C(F)(F)F)CS2)c(-c2cncc(-c3n[nH]c(=O)o3)c2)cn1` (stereo not shown) [Example 143]: the inhibition at 1 µM under setting [1] is 98%.

Turning to `CCNC(=O)Nc1cc(-c2nc(C(F)(F)F)c(C)s2)c(-c2cnc(OC)c(-c3n[nH]c(=O)o3)c2)cn1` [Example 144], the inhibition at 1 µM under setting [1] turned out to be 90%.

For `CCNC(=O)Nc1cc(-c2nc(C(F)(F)F)c(C)s2)c(-c2cncc(-c3n[nH]c(=O)o3)c2)cn1` [Example 145], the inhibition at 1 µM under setting [1] was 100%.

In the case of `CCNC(=O)Nc1cc(-c2cc(C(F)(F)F)nn2C)c(-c2cncc(-c3n[nH]c(=O)o3)c2)cn1` [Example 146], the inhibition at 1 µM under setting [1] is 97%.

In the case of `CCNC(=O)Nc1cc(-c2sc(C)nc2C)c(-c2cncc(-c3n[nH]c(=O)o3)c2)cn1` [Example 147], the inhibition at 1 µM under setting [1] is 95%.

For the compound `CCNC(=O)Nc1cc(-n2cc(C(F)(F)F)cn2)c(-c2cncc(-c3n[nH]c(=O)o3)c2)cn1` [Example 148], the inhibition at 1 µM under setting [1] stood at 97%.

`CCNC(=O)Nc1cc(N2CC(C)OC(C)C2)c(-c2cncc(-c3n[nH]c(=O)o3)c2)cn1` (stereo not shown) [Example 149]: the inhibition at 1 µM under setting [1] is 94%.

For `CCNC(=O)Nc1cc(N2C[C@@H](C)O[C@@H](C)C2)c(-c2cncc(-c3n[nH]c(=O)o3)c2)cn1` [Example 150], under setting [1], the inhibition at 1 µM came to 96%.

Take `CCNC(=O)Nc1cc(N2CCCC(C)(C)C2)c(-c2cncc(-c3n[nH]c(=O)o3)c2)cn1` [Example 151]: the inhibition at 1 µM under setting [1] is 97%.

As for `CCNC(=O)Nc1cc(-c2nc(C(F)(F)F)cs2)c(-c2cncc(-c3nnc(NCCCN(C)C)o3)c2)cn1` [Example 152, 1-(5′-(5-(3-(Dimethylamino)propylamino)-1,3,4-oxadiazol-2-yl)-4-(4-(trifluoromethyl)thiazol-2-yl)-3,3′-bipyridin-6-yl)-3-ethylurea], the inhibition at 1 µM under setting [1] turned out to be 95%.

Take `CCNC(=O)Nc1cc(-c2nc(C(F)(F)F)cs2)c(-c2cncc(-c3nnc(NCCOC)o3)c2)cn1` [Example 153]: the inhibition at 1 µM under setting [1] came to 100%.

`CCNC(=O)Nc1cc(-c2nc(C(F)(F)F)cs2)c(-c2cncc(-c3nnc(N4CCOCC4)o3)c2)cn1` [Example 154]: the inhibition at 1 µM under setting [1] was 105%.

Consider `CCNC(=O)Nc1cc(-c2nc(C(F)(F)F)cs2)c(-c2cncc(-c3nnc(N4CCN(C)CC4)o3)c2)cn1` [Example 155], for which the inhibition at 1 µM under setting [1] was 96%.

For the compound `CCNC(=O)Nc1cc(-c2nc(C(F)(F)F)cs2)c(-c2cncc(-c3nnc(N4CCN(C(C)=O)CC4)o3)c2)cn1` [Example 156], the inhibition at 1 µM under setting [1] is 95%.

Take `CCNC(=O)Nc1cc(-c2nc(C(F)(F)F)cs2)c(-c2cncc(-c3nnc(NCCN(C)C)o3)c2)cn1` [Example 157]: under setting [1], the inhibition at 1 µM was found to be 96%.

Regarding `CCNC(=O)Nc1cc(-c2nc(C(F)(F)F)cs2)c(-c2cncc(-c3nn(C(=O)N(C)C)c(=O)o3)c2)cn1` [Example 158, 5-(6′-(3-Ethylureido)-4′-(4-(trifluoromethyl)thiazol-2-yl)-3,3′-bipyridin-5-yl)-N,N-dimethyl-2-oxo-1,3,4-oxadiazole-3(2H)-carboxamide], the inhibition at 1 µM under setting [1] came out at 97%.

The values are drawn from patent US20120101100A1 (priority 2008, published 2012).
